Some test systems named below: SR leukemia; COLO 205 colon; NCI-H23 lung; NCI-H460 lung; SK-MEL-2 melanoma; HCT-116 colon; 786-0 renal; NCI-H522 lung; HCT-15 colon; HCC-2998 colon.
Holding throughout (assay): DTP human tumour cell line panel, 48 h

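Growth conditions: 96-well plates. Treatment: test compound, 48 hours, 5 concentrations. Analysis: linear interpolation between bracketing concentrations; unreached endpoints set to highest concentration. GI50 = concentration required for 50% inhibition of growth. Definition used: TGI = concentration required for complete inhibition of growth.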

Broadly, the TGI is the concentration giving total growth inhibition. Low values mean greater sensitivity of the cells, high ones lower sensitivity of the cells. In general, GI50 refers to the concentration that inhibits growth by half.

Regarding `Cc1ccc(-n2cc(-c3ccc(Cl)cc3)c3c(NNC(=S)NCc4ccccc4)ncnc32)cc1`, the TGI in the assay with SR leukemia was determined as 21.5 µM; with COLO 205 colon, 27.3 µM; in the assay with NCI-H23 lung it was 60.4 µM; with NCI-H460 lung it was 12.4 µM; with SK-MEL-2 melanoma, 20.1 µM; in the assay with HCT-116 colon, 16.8 µM. Moreover, the TGI in the assay with 786-0 renal was 51.1 µM; in the assay with NCI-H522 lung, 13.2 µM; in the assay with HCT-15 colon, 68.2 µM.
As for `Cc1cccc2ns[s+]c12`, the TGI is greater than 100 µM with COLO 205 colon; greater than 100 µM in the assay on HCC-2998 colon; greater than 100 µM with NCI-H23 lung; greater than 100 µM in the assay on NCI-H460 lung; 37.7 µM in the assay on HCT-116 colon; 39.3 µM in the assay on HCT-15 colon.
For the compound `O=S(=O)(N1CCCCN(S(=O)(=O)C(F)(F)F)CCCN(S(=O)(=O)C(F)(F)F)CCCN(S(=O)(=O)C(F)(F)F)CCCCN(S(=O)(=O)C(F)(F)F)CCCN(S(=O)(=O)C(F)(F)F)CCC1)C(F)(F)F`, the TGI in the assay with COLO 205 colon, in the assay with HCC-2998 colon, in the assay on NCI-H23 lung, in the assay on NCI-H460 lung, in the assay on SK-MEL-2 melanoma and in the assay on HCT-116 colon was greater than 100 µM throughout. The total growth inhibition concentration (TGI) is 35.3 µM in the assay with 786-0 renal, greater than 100 µM with NCI-H522 lung and greater than 100 µM with HCT-15 colon.
Regarding `C[C@H]1C(=O)C2=C[C@H]1CCC(=O)[C@]1(C)CCCC(C)(C)[C@H]1C[C@H]2O`, the TGI with SR leukemia was 61.3 µM; with COLO 205 colon, 28.4 µM; in the assay with NCI-H23 lung, 57.7 µM; with NCI-H460 lung, 58.9 µM; with SK-MEL-2 melanoma, greater than 100 µM; in the assay with HCT-116 colon, greater than 100 µM. The TGI in the assay with 786-0 renal is 32.5 µM; in the assay with NCI-H522 lung, 20.6 µM; in the assay with HCT-15 colon it was 34.3 µM.
As to `CCCCCCCCCCCCCCCCCc1nc(C#N)c(N)o1`, the TGI with SR leukemia is 33.3 µM; in the assay with SK-MEL-2 melanoma, greater than 100 µM; in the assay on HCT-116 colon, greater than 100 µM; in the assay on 786-0 renal it was greater than 100 µM; in the assay with HCT-15 colon, greater than 100 µM.
On to `COc1nc(NC2OCC(OC(C)=O)C(OC(C)=O)C2OC(C)=O)c(N=C(C)C(C)=O)c(=O)n1C` (stereo not drawn), for which the TGI in the assay with SR leukemia, with COLO 205 colon, with NCI-H23 lung, in the assay with NCI-H460 lung, in the assay on SK-MEL-2 melanoma and in the assay with HCT-116 colon was greater than 100 µM throughout. The same compound yielded a total growth inhibition concentration (TGI) in the assay with HCT-15 colon greater than 100 µM.
Turning to `COc1ccc(/C=N/NC(=O)c2ccccc2Nc2ccccc2C(=O)N/N=C/c2ccc(OC)c(OC)c2)cc1OC`, the total growth inhibition concentration (TGI) with SR leukemia, in the assay on COLO 205 colon, with HCC-2998 colon, in the assay with NCI-H23 lung, in the assay on NCI-H460 lung and with SK-MEL-2 melanoma was greater than 100 µM in each case. Besides, the concentration for total growth inhibition (TGI) with HCT-116 colon, with 786-0 renal and in the assay with HCT-15 colon was greater than 100 µM in each case.
Consider `Cc1cc(C)n(CN(Cn2nc(C)cc2C)c2ccc(N(Cn3nc(C)cc3C)Cn3nc(C)cc3C)cc2)n1`, for which the TGI with SR leukemia is greater than 100 µM; with COLO 205 colon, 31.5 µM; in the assay on NCI-H23 lung it was 58.6 µM; in the assay on NCI-H460 lung, 63.8 µM; in the assay on SK-MEL-2 melanoma, 50.1 µM; in the assay on HCT-116 colon it was 31.3 µM. Besides, the TGI in the assay on 786-0 renal was found to be 43.4 µM; in the assay on NCI-H522 lung it was 42.5 µM; in the assay on HCT-15 colon, 45.4 µM.
For `COc1ccc2[nH]c3c(C)c4ccnc(NCCCN(C)CCCNC(=O)NCCCN(C)CCCNc5nccc6c(C)c7[nH]c8ccc(OC)cc8c7c(C)c56)c4c(C)c3c2c1`, the TGI in the assay with COLO 205 colon was 0.858 µM; with HCC-2998 colon, 1.13 µM; in the assay with NCI-H23 lung it was greater than 19 µM; with NCI-H460 lung, 1.34 µM; in the assay with SK-MEL-2 melanoma it was 4.07 µM; with HCT-116 colon it was 5.48 µM. Also, the TGI in the assay on 786-0 renal was 1.2 µM; in the assay on HCT-15 colon, greater than 17.6 µM.
As for `CCC1OC(=O)C(C)C(OC2CC(C)(O)C(O)C(C)O2)C(C)C(O)C(C)(O)CC(C)C(=O)C(C)C(O)C1C` (stereo not drawn), the total growth inhibition concentration (TGI) in the assay on COLO 205 colon, in the assay with HCC-2998 colon, in the assay with NCI-H23 lung, in the assay with NCI-H460 lung, in the assay on SK-MEL-2 melanoma and in the assay with HCT-116 colon was greater than 300 µM each time. Besides, the concentration for total growth inhibition (TGI) with NCI-H522 lung and in the assay on HCT-15 colon was greater than 300 µM throughout.
For `COc1ccc2c(c1)CCC1C2CCC2(C)C1CC[C@@]2(O)CNC(=O)/C=C/c1ccc(O)c(O)c1` (stereo partly drawn), the GI50 is 20.1 µM in the assay on SR leukemia; 1.81 µM with COLO 205 colon; 2.96 µM in the assay with NCI-H23 lung; 2.69 µM in the assay on NCI-H460 lung; 5.59 µM in the assay with SK-MEL-2 melanoma; 2.95 µM in the assay with HCT-116 colon. Besides, the values for the GI50 in the assay on NCI-H522 lung and in the assay on HCT-15 colon were 0.503 µM and 1.49 µM, respectively. Further, the TGI is 59.7 µM with SR leukemia; 5.75 µM in the assay with COLO 205 colon; 9.14 µM with NCI-H23 lung; greater than 100 µM in the assay with NCI-H460 lung; 29.7 µM in the assay with SK-MEL-2 melanoma; 19.2 µM in the assay with HCT-116 colon. Further, the TGI with NCI-H522 lung turned out to be 2.19 µM; in the assay on HCT-15 colon it was 4.99 µM.
On to `Cc1c2cccc-2c(N(C)C)cc2c1[nH]c1ccccc12`, for which the TGI came to 3.98 µM with SR leukemia; 3.42 µM with COLO 205 colon; 32.3 µM in the assay with NCI-H23 lung; 32.2 µM in the assay with NCI-H460 lung; 12.6 µM with HCT-116 colon; 12 µM in the assay on 786-0 renal. Also, the TGI in the assay with HCT-15 colon was determined as 13.6 µM.
Take `OB1OCc2ccccc21`: the TGI in the assay with SR leukemia, in the assay on COLO 205 colon, in the assay with NCI-H23 lung, in the assay on NCI-H460 lung, in the assay on SK-MEL-2 melanoma and in the assay with HCT-116 colon was greater than 100 µM each time. Moreover, the concentration for total growth inhibition (TGI) with 786-0 renal and with HCT-15 colon was greater than 100 µM each time.
As for `C[N+](C)(C)CC(=O)N/N=C(\C(=O)Nc1ccc(Cl)cc1)C1C(=O)N(c2ccccc2)N=C1N` (stereo not drawn), the concentration for total growth inhibition (TGI) in the assay with COLO 205 colon, in the assay on HCC-2998 colon, in the assay on NCI-H23 lung, with NCI-H460 lung, in the assay with SK-MEL-2 melanoma and in the assay with HCT-116 colon was greater than 100 µM each time. Besides, the TGI in the assay with 786-0 renal, with NCI-H522 lung and in the assay with HCT-15 colon was greater than 100 µM throughout.
In the case of `CC(C)Oc1c(O)c2c3c(oc(=O)n3C=CC2c2ccccc2F)c1OC(C)C` (stereo not drawn), the total growth inhibition concentration (TGI) in the assay with SR leukemia was 46.1 µM; in the assay on COLO 205 colon, 36.6 µM; in the assay with NCI-H23 lung it was greater than 100 µM; in the assay on NCI-H460 lung, greater than 100 µM; in the assay on SK-MEL-2 melanoma, 34.5 µM; in the assay on HCT-116 colon, 66.7 µM. Moreover, the concentration for total growth inhibition (TGI) in the assay with 786-0 renal, in the assay with NCI-H522 lung and in the assay on HCT-15 colon was greater than 100 µM throughout.

The record behind these values is PubChem BioAssay (NCI).
